Values joined by “and” are separate entries in the source; they are usually repeats but may differ in a detail not shown here. Equal values may be shown once.
Test: Solubility study of API in liquid, semi-solid and binary excipients (visual, solvent aliquots, Parts 1 and 2)
Conditions: for Aliquot where API first fully dissolved, Part 2 Study: aliquots 1/2/3/4 = 0.8/0.4/0.25/0.1 % w/v
Experimental: The aim of this study was to assess the solubility of the N-(2-(tert-butyl)-1-((4,4-difluorocyclohexyl)methyl)-1H-benzimidazol-5-yl)ethanesulfonamide in a number of different excipients.
The binary semi-solid composition mixtures were manufactured as follows: • I. The semi solids were dispensed then molten overnight at ˜60° C. […] (PEG 6000) • II. PEG 400 was added the next day, as required, (when all the semi-solids were molten) • III. Binary solvent mixture containing PEG 6000 were mixed at ˜80° C. and the remaining binaries were mixed at ˜70° C., until homogenous
Where required, the semi solids were melted prior to use (overnight). The solubility of the API in the selected solvents was assessed in two parts (Part 1 and Part 2 Studies) as follows: • i. Solvent aliquots were added to pre-dispensed API while mixing using a magnetic flea and stirrer. • ii. The temperature of the solvents was maintained as follows: • a. Single-component liquids: Room temperature (ambient) • b. TPGS and PEG 1500: ˜60° C. • c. PEG 6000 and binary solvent mixtures containing PEG 6000: ˜80° C. • iii. Solvents were mixed for a maximum of 1 hour between each aliquot addition. • iv. The solvents were carefully inspected visually between aliquots. • v. The addition of solvent was stopped when: • a. After Aliquot 2 addition if API fully dissolve—(even if API dissolve after Aliquot 1, Aliquot 2 was added) • b. After adding all the solvent aliquots in Table 28 • vi.

CCS(=O)(=O)Nc1ccc2c(c1)nc(C(C)(C)C)n2CC1CCC(F)(F)CC1 [Compound I, N-(2-(tert-butyl)-1-((4,4-difluorocyclohexyl)methyl)-1H-benzimidazol-5-yl)ethanesulfonamide]
3rd^#: Aliquot where API first fully dissolved, Part 1 Study (in Polysorbate 20, ambient, only after stirring overnight, aliquots 1/2/3 = 0.05/0.025/0.0125 % w/v) | Aliquot where API first fully dissolved, Part 1 Study (in Polysorbate 80, ambient, only after stirring overnight, aliquots 1/2/3 = 0.05/0.025/0.0125 % w/v) | Aliquot where API first fully dissolved, Part 1 Study (in Propylene glycol dilaurate, ambient, only after stirring overnight, aliquots 1/2/3 = 0.05/0.025/0.0125 % w/v)
2nd^#: Aliquot where API first fully dissolved, Part 1 Study (in Labrasol ALF, ambient, only after stirring overnight, aliquots 1/2/3 = 0.05/0.025/0.0125 % w/v) | Aliquot where API first fully dissolved, Part 2 Study (in molten Cremophor RH40, only after stirring overnight)
DND*: Aliquot where API first fully dissolved, Part 1 Study (in 1,2-propane diol, ambient, DND = did not dissolve even after 3 aliquots (0.0125 % w/v)) | Aliquot where API first fully dissolved, Part 1 Study (in Corn oil, ambient, DND = did not dissolve even after 3 aliquots (0.0125 % w/v)) | Aliquot where API first fully dissolved, Part 1 Study (in Glycerol, ambient, DND = did not dissolve even after 3 aliquots (0.0125 % w/v)) | Aliquot where API first fully dissolved, Part 1 Study (in Kolliphor EL, ambient, DND = did not dissolve even after 3 aliquots (0.0125 % w/v)) | Aliquot where API first fully dissolved, Part 1 Study (in Kolliphor ELP, ambient, DND = did not dissolve even after 3 aliquots (0.0125 % w/v)) | Aliquot where API first fully dissolved, Part 1 Study (in Labrafil M 2125 CS, ambient, DND = did not dissolve even after 3 aliquots (0.0125 % w/v)) | Aliquot where API first fully dissolved, Part 1 Study (in Miglyol 812 (Medium-chain Triglycerides), ambient, DND = did not dissolve even after 3 aliquots (0.0125 % w/v)) | Aliquot where API first fully dissolved, Part 1 Study (in Oleic acid, ambient, DND = did not dissolve even after 3 aliquots (0.0125 % w/v)) | Aliquot where API first fully dissolved, Part 1 Study (in Soybean oil, ambient, DND = did not dissolve even after 3 aliquots (0.0125 % w/v)) | Aliquot where API first fully dissolved, Part 1 Study (in molten Glyceryl palmitostearate, DND = Did not dissolve (3 aliquots, 0.0125 % w/v)) | Aliquot where API first fully dissolved, Part 1 Study (in molten Sorbitan palmitate, DND = Did not dissolve (3 aliquots, 0.0125 % w/v))
2nd Only: Aliquot where API first fully dissolved, Part 1 Study (in molten Cremophor RH40, only after Overnight Hold, aliquots 1/2/3 = 0.05/0.025/0.0125 % w/v)
2nd: Aliquot where API first fully dissolved, Part 2 Study (in Diethylene glycol monoethyl ether, ambient) | Aliquot where API first fully dissolved, Part 2 Study (in Octanoic acid, ambient) | Aliquot where API first fully dissolved, Part 1 Study (in Octanoic acid, ambient, aliquots 1/2/3 = 0.05/0.025/0.0125 % w/v) | Aliquot where API first fully dissolved, Part 1 Study (in PEG 400, ambient, aliquots 1/2/3 = 0.05/0.025/0.0125 % w/v) | Aliquot where API first fully dissolved, Part 2 Study (in PEG1500:TPGS (1:9)) | Aliquot where API first fully dissolved, Part 2 Study (in Propylene glycol monocaprylate, ambient) | Aliquot where API first fully dissolved, Part 1 Study (in Propylene glycol monocaprylate, ambient, aliquots 1/2/3 = 0.05/0.025/0.0125 % w/v) | Aliquot where API first fully dissolved, Part 1 Study (in molten Gelucire 50/13, aliquots 1/2/3 = 0.05/0.025/0.0125 % w/v) | Aliquot where API first fully dissolved, Part 2 Study (in molten Glyceryl monooleate) | Aliquot where API first fully dissolved, Part 1 Study (in molten Glyceryl monooleate, aliquots 1/2/3 = 0.05/0.025/0.0125 % w/v) | Aliquot where API first fully dissolved, Part 2 Study (in molten Kolliphor HS15) | Aliquot where API first fully dissolved, Part 2 Study (in molten PEG 4000) | Aliquot where API first fully dissolved, Part 1 Study (in molten PEG 6000, ~80° C., aliquots 1/2/3 = 0.05/0.025/0.0125 % w/v)
Precipitate: Observation of Part 2 solution on standing (in Labrasol ALF, after 4 aliquots (0.1 % w/v), 5 days later at ambient)
4th: Aliquot where API first fully dissolved, Part 2 Study (in PEG 400, ambient) | Aliquot where API first fully dissolved, Part 2 Study (in molten Gelucire 48/16)
> 0.80% w/v: Solubility range (% w/v) Above/Below (in PEG400:PEG 1500 (1:1), upper limit not known) | Solubility range (% w/v) Above/Below (in PEG400:PEG 1500 (1:9), upper limit not known) | Solubility range (% w/v) Above/Below (in PEG400:PEG 1500 (9:1), upper limit not known) | Solubility range (% w/v) Above/Below (in PEG1500:PEG6000 (1:1), ~80° C., upper limit not known) | Solubility range (% w/v) Above/Below (in PEG1500:PEG6000 (1:9), ~80° C., upper limit not known) | Solubility range (% w/v) Above/Below (in PEG1500:PEG6000 (9:1), ~80° C., upper limit not known) | Solubility range (% w/v) Above/Below (in PEG1500:TPGS (1:1), upper limit not known) | Solubility range (% w/v) Above/Below (in PEG1500:TPGS (9:1), upper limit not known) | Solubility range (% w/v) Above/Below (in molten PEG 6000, ~80° C., upper limit not known)
> 0.40% w/v and < 0.80% w/v: Solubility range (% w/v) Above/Below (in Diethylene glycol monoethyl ether, ambient, listed as API) | Solubility range (% w/v) Above/Below (in Octanoic acid, ambient, listed as API) | Solubility range (% w/v) Above/Below (in PEG1500:TPGS (1:9), listed as API) | Solubility range (% w/v) Above/Below (in Propylene glycol monocaprylate, ambient, listed as API) | Solubility range (% w/v) Above/Below (in molten Cremophor RH40, listed as API) | Solubility range (% w/v) Above/Below (in molten Glyceryl monooleate, listed as API) | Solubility range (% w/v) Above/Below (in molten Kolliphor HS15, listed as API) | Solubility range (% w/v) Above/Below (in molten PEG 4000, listed as API)
1st: Aliquot where API first fully dissolved, Part 1 Study (in Diethylene glycol monoethyl ether, ambient, aliquots 1/2/3 = 0.05/0.025/0.0125 % w/v) | Aliquot where API first fully dissolved, Part 2 Study (in PEG400:PEG 1500 (1:1)) | Aliquot where API first fully dissolved, Part 1 Study (in PEG400:PEG 1500 (1:1), aliquots 1/2/3 = 0.05/0.025/0.0125 % w/v) | Aliquot where API first fully dissolved, Part 2 Study (in PEG400:PEG 1500 (1:9)) | Aliquot where API first fully dissolved, Part 1 Study (in PEG400:PEG 1500 (1:9), aliquots 1/2/3 = 0.05/0.025/0.0125 % w/v) | Aliquot where API first fully dissolved, Part 2 Study (in PEG400:PEG 1500 (9:1)) | Aliquot where API first fully dissolved, Part 1 Study (in PEG400:PEG 1500 (9:1), aliquots 1/2/3 = 0.05/0.025/0.0125 % w/v) | Aliquot where API first fully dissolved, Part 2 Study (in PEG1500:PEG6000 (1:1), ~80° C.) | Aliquot where API first fully dissolved, Part 1 Study (in PEG1500:PEG6000 (1:1), ~80° C., aliquots 1/2/3 = 0.05/0.025/0.0125 % w/v) | Aliquot where API first fully dissolved, Part 2 Study (in PEG1500:PEG6000 (1:9), ~80° C.) | Aliquot where API first fully dissolved, Part 2 Study (in PEG1500:PEG6000 (9:1), ~80° C.) | Aliquot where API first fully dissolved, Part 1 Study (in PEG1500:PEG6000 (9:1), ~80° C., aliquots 1/2/3 = 0.05/0.025/0.0125 % w/v) | Aliquot where API first fully dissolved, Part 2 Study (in PEG1500:TPGS (1:1)) | Aliquot where API first fully dissolved, Part 1 Study (in PEG1500:TPGS (1:1), aliquots 1/2/3 = 0.05/0.025/0.0125 % w/v) | Aliquot where API first fully dissolved, Part 2 Study (in PEG1500:TPGS (9:1)) | Aliquot where API first fully dissolved, Part 1 Study (in PEG1500:TPGS (9:1), aliquots 1/2/3 = 0.05/0.025/0.0125 % w/v) | Aliquot where API first fully dissolved, Part 1 Study (in molten Capmul 808G, aliquots 1/2/3 = 0.05/0.025/0.0125 % w/v) | Aliquot where API first fully dissolved, Part 1 Study (in molten Gelucire 48/16, aliquots 1/2/3 = 0.05/0.025/0.0125 % w/v) | Aliquot where API first fully dissolved, Part 1 Study (in molten Kolliphor HS15, aliquots 1/2/3 = 0.05/0.025/0.0125 % w/v) | Aliquot where API first fully dissolved, Part 1 Study (in molten PEG 4000, aliquots 1/2/3 = 0.05/0.025/0.0125 % w/v) | Aliquot where API first fully dissolved, Part 2 Study (in molten PEG 6000, ~80° C.)
> 0.25% w/v and < 0.40% w/v: Solubility range (% w/v) Above/Below (in molten Capmul 808G, listed as API) | Solubility range (% w/v) Above/Below (in molten Gelucire 50/13, listed as API)
> 0.10% w/v: Solubility range (% w/v) Above/Below (in Polysorbate 20, ambient, upper limit not known) | Solubility range (% w/v) Above/Below (in Polysorbate 80, ambient, upper limit not known) | Solubility range (% w/v) Above/Below (in Propylene glycol dilaurate, ambient, upper limit not known)
> 0.025% w/v and < 0.05% w/v: Solubility range (% w/v) Above/Below (in Labrasol ALF, ambient, listed as API)
3rd: Aliquot where API first fully dissolved, Part 2 Study (in Labrasol ALF, ambient) | Aliquot where API first fully dissolved, Part 1 Study (in PEG1500:PEG6000 (1:9), ~80° C., aliquots 1/2/3 = 0.05/0.025/0.0125 % w/v) | Aliquot where API first fully dissolved, Part 1 Study (in PEG1500:TPGS (1:9), aliquots 1/2/3 = 0.05/0.025/0.0125 % w/v) | Aliquot where API first fully dissolved, Part 2 Study (in molten Capmul 808G) | Aliquot where API first fully dissolved, Part 2 Study (in molten Gelucire 50/13)
4th Only: Aliquot where API first fully dissolved, Part 2 Study (in Polysorbate 20, ambient, only after Overnight Hold) | Aliquot where API first fully dissolved, Part 2 Study (in Polysorbate 80, ambient, only after Overnight Hold) | Aliquot where API first fully dissolved, Part 2 Study (in Propylene glycol dilaurate, ambient, only after Overnight Hold)
